Publication PMC3242765, “Inhibitors of Alphavirus Entry and Replication Identified with a Stable Chikungunya Replicon Cell Line and Virus-Based Assays” (PLoS ONE, 2011)
Where a name gives a salt, the structure may show the parent alone.

Columns and labels:
CHIKV replicon = experiment: microbe, parasite or virus in culture; assay type: cell-based, Chikungunya virus (CHIKV)

Row | SMILES | SFV replication % left (surviving fraction, remaining percentage of SFV replication) (SFV-Rluc) | CHIKV replicon % left (CHIKV replicon)
1 | NCCN1C(=O)CN=C(c2ccccc2F)c2cc(Cl)ccc21 [Desalkylflurazepam] | 68.5% | 74.3%
2 | C=CCC1(CC=C)C(=O)NC(=O)NC1=O [Allobarbital] | 45.6% | 121.1%
3 | O=c1c(O)c(-c2cc(O)c(O)c(O)c2)oc2cc(O)cc(O)c12 [Myricetin] | 2.0% | 49.1%
4 | COc1cc(OC)c2ccc(=O)oc2c1 [Citropten] | 67.4% | 106.4%
5 | O=C(O)/C=C\C(=O)O.O=C(O)/C=C\C(=O)O.OCCN1CCN(CCCN2c3ccccc3Sc3ccc(C(F)(F)F)cc32)CC1 [Fluphenatzinemaleate] | 98.9% | 104.3%
6 | NC(=O)NS(=O)(=O)c1ccc(N)cc1.O [Sulfaninyl urea hydrate] | 120.2% | 92.8%
7 | O=C(O)c1cccc(O)c1O [2,3-Dihydroxybenzoic acid] | 93.1% | 105.1%
8 | CC(C)NCC(O)COc1cccc2[nH]ccc12 (centres unmarked) [Pindolol] | 86.2% | 72.1%
9 | O=C(O)/C=C/c1ccc(O)c(O)c1 [Caffeic acid] | 98.7% | 85.2%
10 | Cc1nnc2n1-c1ccc(Cl)cc1C(c1ccccc1Cl)=NC2 [Triazolam] | 76.5% | 40.1%
11 | CC(C)NCC(O)c1ccc(Cl)c(Cl)c1.Cl (centres unmarked) [Dichloroisoproterenol hydrochloride] | 49.6% | 69.2%
12 | Cl.Cl.OCCN1CCN(CC/C=C2/c3ccccc3Sc3ccc(C(F)(F)F)cc32)CC1 [Cis(Z)-Flupentixol dihydrochloride] | 92.6% | 102.7%
13 | CCOC(=O)c1ccc(O)cc1 [Ethyl 4-hydroxybenzoate] | 127.8% | 94.4%
14 | CC(C)(C)NCC(O)COc1ccccc1C#N (centres unmarked) [Bunitrolol] | 40.7% | 58.9%
15 | COCCc1ccc(OCC(O)CNC(C)C)cc1 (centres unmarked) [Metoprolol tartrate] | 65.7% | 78.2%
16 | Cc1cc(N)c2ccccc2[n+]1CCCCCCCCCC[n+]1c(C)cc(N)c2ccccc21 [Dequalinium chloride] | 62.5% | 39.4%
17 | Cl.c1ccc(CC2=NCCN2)cc1 [Tolazoline, hydrochloride] | 76.0% | 102.1%
18 | NCC(O)c1cccc(O)c1 (centres unmarked) [Norfenefrine] | 126.3% | 96.6%
19 | Oc1cc(O)c2c(c1)OC(c1ccc(O)c(O)c1)C(O)C2O (centres unmarked) [Leucocyanidin] | 136.3% | 84.1%
